Results as given in US8802694B2, “3,6-diazabicyclo[3.1.1]heptanes as neuronal nicotinic acetycholine receptor ligands” (Targacept, Inc., priority 2009, dated 2014).
Read-outs that look alike come from different tables or passages of the source.

How the values were obtained:
Human α4β2 = target: T1, Human α4β2 (Homo sapiens, UniProt P17787+P43681); assay: Competition binding to human α4β2 receptors in membranes of SH-EP1/human α4β2 cells ([3H]-nicotine); settings: membrane competition binding
T1 construct: host or cells: SH-EP1

Rat α4β2 = target: T2, Rat α4β2 (Rattus norvegicus, UniProt P09483+P12390); assay: Competition binding to rat α4β2 receptors in rat cortical membranes; settings: rat cortex membranes
T2 construct: Rat cortices were obtained from Analytical Biological Services; tissue Analytical Biological Services, Incorporated (ABS, Wilmington, Del.); host or cells: rat cortex (female Sprague-Dawley)
Procedure: Preparation of membranes from rat tissues. Rat cortices were obtained from Analytical Biological Services, Incorporated (ABS, Wilmington, Del.). Tissues were dissected from female Sprague-Dawley rats, frozen and shipped on dry ice. Tissues were stored at −20° C. until needed for membrane preparation. […] The resulting homogenate was centrifuged at 40,000 g for 20 minutes at 4° C. and the resulting pellet was resuspended in 20 volumes of ice-cold water. After 60-minute incubation at 4° C., a new pellet was collected by centrifugation at 40,000 g for 20 minutes at 4° C. The final pellet was resuspended in preparative buffer and stored at −20° C. On the day of the assay, tissue was thawed, centrifuged at 40,000 g for 20 minutes and then resuspended in PBS (Dulbecco's Phosphate Buffered Saline, Life Technologies, pH 7.4) to a final concentration of 2-3 mg protein/mL. Protein concentrations were determined using the Pierce BCA Protein Assay kit (Pierce Biotechnology, Rockford, Ill.), with bovine serum albumin as the standard.
Competition binding to receptors in membrane preparations. […] In brief, membranes were reconstituted from frozen stocks (approximately 0.2 mg protein) and incubated for 2 h on ice in […] assay buffer (PBS) in the presence of competitor compound (0.001 nM to […]) and radioligand. [^3H]-nicotine (L-(−)-[N-methyl-3H]-nicotine, 69.5 Ci/mmol, Perkin-Elmer Life Sciences) was used for human α4β2 binding studies. [^3H]-epibatidine (52 Ci/mmol, Perkin-Elmer Life Sciences) was used for binding studies at the other receptor subtypes. […] Filters were washed 3 times and the radioactivity retained was determined by liquid scintillation counting.
Binding data analysis. Binding data were expressed as percent total control binding. Replicates for each point were averaged and plotted against the log of drug concentration.

α6β3β4α5 = target: T3, α6β3β4α5 (Homo sapiens, UniProt P30926+Q15825); assay: Competition binding to α6β3β4α5 receptors in membranes of SH-EP1/α6β3β4α5 cells ([3H]-epibatidine); settings: membrane competition binding, read-out: α6β3β4α5 Ki
T3 construct: host or cells: SH-EP1

Structure (SMILES)	Ki (Human α4β2; read-out: Human α4β2 Ki)	also measured
O=C([C@@H]1CCCO1)N1CC2CC(C1)N2	370 nM	–
O=C(N1CC2CC(C1)N2)C1(C(F)(F)F)CCC1	6300 nM	–
CC1(C)CC(C(=O)N2CC3CC(C2)N3)C1	–	Ki (Human α4β2; Human α4β2 Ki): 69 nM; Ki (Rat α4β2; read-out: Rat α4β2 Ki): 520 nM
O=C(CC1CCCO1)N1CC2CC(C1)N2 (stereo not shown)	2900 nM	–
CC(=O)NCCC(=O)N1CC2CC(C1)N2	3400 nM	–
CC(=O)NCCCC(=O)N1CC2CC(C1)N2	1900 nM	–
O=C([C@H]1CCCO1)N1CC2CC(C1)N2	400 nM	–
Cc1ncoc1C(=O)N1CC2CC(C1)N2	–	Ki (α6β3β4α5): 11000 nM; Ki (Rat α4β2; Rat α4β2 Ki): 38 nM
Cc1nocc1C(=O)N1CC2CC(C1)N2	–	Ki (Human α4β2; Human α4β2 Ki): 53 nM; Ki (Rat α4β2; Rat α4β2 Ki): 60 nM
CC(C)CC(=O)N1CC2CC(C1)N2	–	Ki (Human α4β2; Human α4β2 Ki): 34 nM; Ki (Rat α4β2; Rat α4β2 Ki): 70 nM
O=C(C1CC=CCC1)N1CC2CC(C1)N2 (stereo not shown)	120 nM	Ki (Rat α4β2; read-out: Rat α4β2 Ki): 390 nM
O=C(c1cnc(Cl)c(Cl)c1)N1CC2CC(C1)N2	1500 nM	–
Cc1cc(C(=O)N2CC3CC(C2)N3)no1	1100 nM	–
O=C(CC1C=CCC1)N1C2CNCC1C2 (stereo not shown)	150 nM	Ki (Rat α4β2; Rat α4β2 Ki): 71 nM
O=C(C1Cc2ccccc2C1)N1C2CNCC1C2	3000 nM	–
O=C(COCc1ccccc1)N1C2CNCC1C2	1400 nM	–
O=C(CCOc1ccc(F)cc1)N1C2CNCC1C2	1200 nM	–
O=C(C1Cc2ccccc21)N1C2CNCC1C2 (stereo not shown)	9400 nM	–
CO[C@H](C(=O)N1C2CNCC1C2)c1ccccc1	7100 nM	–
O=C(Cc1c[nH]c2ccccc12)N1C2CNCC1C2	2200 nM	–
O=C(COc1ccc(F)cc1)N1C2CNCC1C2	1300 nM	–
O=C(CC1CCCO1)N1C2CNCC1C2 (stereo not shown)	2000 nM	–
O=C([C@H]1CCCO1)N1C2CNCC1C2	390 nM	Ki (α6β3β4α5): 1100 nM
O=C([C@@H]1CCCO1)N1C2CNCC1C2	750 nM	–
O=C(CC1CCOCC1)N1C2CNCC1C2	3300 nM	–

Structure (SMILES)	Ki (Human α4β2; read-out: Human α4β2 Ki)	also measured
Cn1c(C(=O)N2C3CNCC2C3)cc2ccccc21	2900 nM	–
O=C(C1CCOCC1)N1C2CNCC1C2	2000 nM	–
O=C(CC1CC1)N1C2CNCC1C2	–	Ki (α6β3β4α5): 310 nM; Ki (Human α4β2; Human α4β2 Ki): 43 nM; Ki (Rat α4β2; Rat α4β2 Ki): 27 nM
O=C(C1CC=CC1)N1CC2CC(C1)N2	–	Ki (Human α4β2; Human α4β2 Ki): 37 nM; Ki (Rat α4β2; Rat α4β2 Ki): 260 nM
COCC(=O)N1CC2CC(C1)N2	–	Ki (Human α4β2; Human α4β2 Ki): 79 nM; Ki (Rat α4β2; Rat α4β2 Ki): 50 nM
CCC(C)C(=O)N1CC2CC(C1)N2 (stereo not shown)	150 nM	Ki (Rat α4β2; read-out: Rat α4β2 Ki): 240 nM
O=C(C1CNC1)N1CC2CC(C1)N2	430 nM	–
O=C(C1CC2CCC1C2)N1CC2CC(C1)N2 (stereo not shown)	–	Ki (Human α4β2; Human α4β2 Ki): 60 nM; Ki (Rat α4β2; read-out: Rat α4β2 Ki): 220 nM
O=C(c1ccnc(Cl)c1)N1CC2CC(C1)N2	450 nM	–
CC1(C)C(C(=O)N2CC3CC(C2)N3)C1(C)C	140 nM	Ki (α6β3β4α5): 480 nM; Ki (Rat α4β2; read-out: Rat α4β2 Ki): 710 nM
O=C(C1CCCC1)N1CC2CC(C1)N2	–	Ki (Human α4β2; Human α4β2 Ki): 170 nM; Ki (Rat α4β2; Rat α4β2 Ki): 77 nM
O=C(c1cc(Cl)cc(Cl)c1)N1CC2CC(C1)N2	3300 nM	–
O=C(C1CCC1)N1CC2CC(C1)N2	–	Ki (Human α4β2; Human α4β2 Ki): 28 nM; Ki (Rat α4β2; Rat α4β2 Ki): 6.8 nM
O=C(C1CC=CC1)N1C2CNCC1C2	810 nM	–
COCC(=O)N1C2CNCC1C2	410 nM	–
CCC(C)C(=O)N1C2CNCC1C2 (stereo not shown)	290 nM	–
O=C(C1CC2CCC1C2)N1C2CNCC1C2 (stereo not shown)	1700 nM	–
O=C(c1ccnc(Cl)c1)N1C2CNCC1C2	970 nM	–
CC1(C)C(C(=O)N2C3CNCC2C3)C1(C)C	11000 nM	–
CC1CC1C(=O)N1C2CNCC1C2 (stereo not shown)	–	Ki (Human α4β2; Human α4β2 Ki): 46 nM; Ki (Rat α4β2; Rat α4β2 Ki): 34 nM
O=C(C1CCCC1)N1C2CNCC1C2	420 nM	–
O=C(c1cc(Cl)cc(Cl)c1)N1C2CNCC1C2	1200 nM	Ki (α6β3β4α5): 14000 nM
Cc1cc(C(=O)N2C3CNCC2C3)no1	–	Ki (Human α4β2; Human α4β2 Ki): 100 nM; Ki (Rat α4β2; Rat α4β2 Ki): 50 nM
Cc1ncoc1C(=O)N1C2CNCC1C2	140 nM	Ki (Rat α4β2; read-out: Rat α4β2 Ki): 250 nM
